{"source": "patent US20130190407A1", "about": "“CALCIUM RECEPTOR-ACTIVE MOLECULES” (NPS Pharmaceuticals, Inc., priority 1991, published 2013)", "key": {"[1]": {"target": "T1, parathyroid cell calcium receptor (Bos taurus, UniProt P35384)", "T1 sequence (P35384 20-1085)": "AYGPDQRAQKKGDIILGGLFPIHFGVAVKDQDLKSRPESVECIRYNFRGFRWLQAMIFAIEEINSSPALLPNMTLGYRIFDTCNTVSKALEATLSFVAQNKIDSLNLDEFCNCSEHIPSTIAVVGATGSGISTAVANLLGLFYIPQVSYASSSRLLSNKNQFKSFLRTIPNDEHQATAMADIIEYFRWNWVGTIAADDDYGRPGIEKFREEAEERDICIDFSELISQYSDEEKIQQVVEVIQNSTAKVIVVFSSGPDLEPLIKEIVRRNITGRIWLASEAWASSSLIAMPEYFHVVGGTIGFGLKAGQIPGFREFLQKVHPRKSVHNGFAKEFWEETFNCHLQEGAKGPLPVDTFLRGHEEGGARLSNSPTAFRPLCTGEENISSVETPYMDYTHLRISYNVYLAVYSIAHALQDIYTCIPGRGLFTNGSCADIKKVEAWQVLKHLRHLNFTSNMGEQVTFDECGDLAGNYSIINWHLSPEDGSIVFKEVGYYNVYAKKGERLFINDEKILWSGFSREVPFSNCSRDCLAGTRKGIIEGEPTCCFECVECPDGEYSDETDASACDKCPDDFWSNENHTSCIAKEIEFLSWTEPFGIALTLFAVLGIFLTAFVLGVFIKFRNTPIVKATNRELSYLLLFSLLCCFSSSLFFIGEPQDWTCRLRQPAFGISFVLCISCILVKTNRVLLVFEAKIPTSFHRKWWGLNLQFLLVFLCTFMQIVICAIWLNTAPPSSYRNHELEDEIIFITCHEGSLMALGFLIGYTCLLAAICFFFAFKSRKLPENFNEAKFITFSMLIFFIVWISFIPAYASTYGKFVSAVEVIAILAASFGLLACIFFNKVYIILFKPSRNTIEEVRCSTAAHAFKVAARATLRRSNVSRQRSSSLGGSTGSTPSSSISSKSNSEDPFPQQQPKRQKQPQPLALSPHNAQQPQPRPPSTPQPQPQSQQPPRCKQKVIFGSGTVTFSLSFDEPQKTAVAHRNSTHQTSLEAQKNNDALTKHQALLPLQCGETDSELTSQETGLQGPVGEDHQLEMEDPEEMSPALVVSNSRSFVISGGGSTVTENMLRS", "test": "Cl- current in Xenopus oocytes injected with bovine parathyroid cell poly(A)+-mRNA", "format": "cell-based", "design": "Whole pieces of gland were used to prepare mRNA that directs the expression of the calcium receptor in Xenopus oocytes; expressed in transfected cells; host or cells: Xenopus laevis oocytes injected with total poly(A)+ mRNA from bovine parathyroid glands", "details": "30 μM", "experimental": "Following incubation, an oocyte was placed into a 100-μl plastic chamber and superfused with MBS at a flow rate of 0.5 ml/min using a peristaltic pump. Test molecules or inorganic polycations were added by rapidly moving the tubing into different buffers. Recording and current-passing electrodes were constructed from thin-wall capillary tubing pulled to a resistance of 1-3 Mohms and filled with 3 M KCl. […] Currents were recorded directly onto a strip chart recorder.\nDissociated bovine parathyroid cells were used to further explore the mechanism of action of NPS R-467 at the receptor level. […] It does, however, elicit responses in parathyroid cells and in oocytes when a small amount of extracellular Ca^2+ is present."}, "thyroidectomized animals": {"test_system": "thyroidectomized animals", "test": "Hypocalcemic response in thyroidectomized rats", "format": "in vivo, rat", "details": "3 to 100 mg/kg p.o.", "description": "In subsequent studies, rats received a thyroidectomy (parathyroid glands intact). This surgical procedure effectively removed the C-cells secreting calcitonin and therefore enabled the relative contributions of PTH and calcitonin to the hypocalcemic effect of this compound to be determined. […] The only difference was that the rate of onset of the hypocalcemic response was somewhat delayed in thyroidectomized animals. […] Stimulatory effects of this compound on calcitonin secretion increases the rate of onset, but not the extent, of hypocalcemia."}, "[2]": {"target": "T2, parathyroid cell calcium receptor (Homo sapiens, UniProt P41180)", "T2 construct": "Dissociated parathyroid cells were prepared from a parathyroid adenoma obtained by surgery; endogenous in cells; host or cells: dissociated primary human parathyroid cells from patients with primary or uremic hyperparathyroidism", "T2 sequence (P41180 20-1078)": "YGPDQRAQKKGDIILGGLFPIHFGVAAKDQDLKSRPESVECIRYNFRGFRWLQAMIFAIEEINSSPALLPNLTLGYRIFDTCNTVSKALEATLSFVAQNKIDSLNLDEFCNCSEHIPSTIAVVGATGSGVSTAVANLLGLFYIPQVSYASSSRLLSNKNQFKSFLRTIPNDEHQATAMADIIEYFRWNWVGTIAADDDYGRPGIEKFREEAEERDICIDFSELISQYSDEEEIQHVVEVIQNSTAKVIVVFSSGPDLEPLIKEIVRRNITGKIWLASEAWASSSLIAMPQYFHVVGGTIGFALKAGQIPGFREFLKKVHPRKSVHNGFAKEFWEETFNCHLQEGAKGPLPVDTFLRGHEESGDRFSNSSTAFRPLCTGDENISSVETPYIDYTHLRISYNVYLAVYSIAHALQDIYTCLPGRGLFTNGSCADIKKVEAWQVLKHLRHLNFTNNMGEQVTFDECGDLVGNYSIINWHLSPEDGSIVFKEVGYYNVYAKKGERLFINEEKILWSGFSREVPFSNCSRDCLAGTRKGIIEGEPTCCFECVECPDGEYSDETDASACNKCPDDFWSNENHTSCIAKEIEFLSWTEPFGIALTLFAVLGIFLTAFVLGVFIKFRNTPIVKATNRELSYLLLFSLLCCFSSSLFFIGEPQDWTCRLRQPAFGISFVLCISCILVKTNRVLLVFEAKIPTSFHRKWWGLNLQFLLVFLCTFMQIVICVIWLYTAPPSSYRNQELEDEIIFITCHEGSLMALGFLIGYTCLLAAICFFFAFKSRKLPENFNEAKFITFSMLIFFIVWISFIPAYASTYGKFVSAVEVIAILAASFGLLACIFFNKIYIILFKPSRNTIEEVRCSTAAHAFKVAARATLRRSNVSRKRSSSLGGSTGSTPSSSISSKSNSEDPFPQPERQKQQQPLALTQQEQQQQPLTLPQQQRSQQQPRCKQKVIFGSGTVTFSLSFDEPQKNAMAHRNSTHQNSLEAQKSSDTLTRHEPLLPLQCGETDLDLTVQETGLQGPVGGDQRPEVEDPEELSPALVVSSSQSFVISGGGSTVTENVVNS", "test": "[Ca2+]i (fura-2) in human parathyroid cells", "format": "cell-based", "details": "20 μM", "procedure": "This section describes procedures used to obtain and treat parathyroid cells from calves and humans. […] Human parathyroid glands, were obtained from patients undergoing surgical removal of parathyroid tissue for primary or uremic hyperparathyroidism (uremic HPT), and were treated similarly to bovine tissue.\nThe cells were then pelleted, resuspended in the same buffer, but lacking the ester, and incubated a further 15 minutes at 37° C. The cells were subsequently washed twice with PCB containing 0.5 mM CaCl2 and 0.5% BSA and maintained at room temperature (about 20° C.) Immediately before use, the cells were diluted five-fold with prewarmed 0.5 mM CaCl2-PCB to obtain a final BSA concentration of 0.1%. The concentration of cells in the cuvette used for fluorescence recording was 1−2×10^6/ml.\nThe fluorescence of indicator-loaded cells was measured at 37° C. in a spectrofluorimeter (Biomedical Instrumentation Group, University of Pennsylvania, Philadelphia, Pa.) equipped with a thermostated cuvette holder and magnetic stirrer using excitation and emission wavelengths of 340 and 510 nm, respectively. […] To correct the calibration for dye leakage, cells were placed in the cuvette and stirred at 37° C. for 2-3 minutes. The cell suspension was then removed, the cells pelleted, and the supernatant returned to a clean cuvette. […] This estimate was subtracted from the apparent Fmin."}, "Bovine parathyroid cells": {"test_system": "Bovine parathyroid cells", "test": "PTH secretion from bovine parathyroid cells", "format": "cell-based", "details": "concentrations that mobilize intracellular Ca2+", "experimental": "PTH secretion was measured by first suspending cells in PCB containing 0.5 mM CaCl2 and 0.1% BSA.\nCounting of samples and data reduction were performed on a Packard Cobra 5005 gamma counter."}}, "data": [{"smiles": "COc1cccc([C@@H](C)NCCCc2ccccc2)c1", "note": "(single isomer, unassigned) [NPS R-467]", "values": [{"measurement": "Cl- current", "setting": "[1]", "result": "rapid increase in Cl^− current"}]}, {"smiles": "COc1cccc([C@@H](C)NCCCc2ccccc2Cl)c1", "note": "[NPS R-568, (R)-(+)-N-[3-(2-chlorophenyl)propyl]-α-methyl-3-methoxybenzylamine]", "values": [{"measurement": "hypocalcemic response", "setting": "thyroidectomized animals", "result": "hypocalcemic response equal in magnitude to that produced in sham-operated animals"}]}, {"smiles": "NC[C@@H]1O[C@H](O[C@H]2[C@@H](O)[C@H](O[C@@H]3[C@@H](O)[C@H](N)C[C@H](N)[C@H]3O[C@H]3O[C@H](CN)[C@@H](O)[C@H](O)[C@H]3N)O[C@@H]2CO)[C@H](N)[C@@H](O)[C@@H]1O", "note": "[Neomycin B, neomycin B]", "values": [{"measurement": "increase in [Ca2+]i", "setting": "[2]", "result": "large increase"}, {"measurement": "PTH secretion", "setting": "Bovine parathyroid cells", "result": "inhibited PTH secretion to the same extent as extracellular Ca^2+"}]}]}
